In brackets after ≈: the same amount, converted by molar mass.

Holding throughout (format): in vivo
Data set [1] has as its system Bemisia tabaci (Gennadius) nymphs. In words: Joint toxicity of I-72 + thiacloprid, Example 71, Table 71. The conditions noted are these: A = compound I-72, B = thiacloprid, cotton leaf-disk spraying, 96 hours, read-out: LC50. Here is the method:
Test target: Bemisia tabaci (Gennadius) nymphs, a sensitive strain reared indoors.
(§1) Preparation of the pesticide solution: according to different test requirements, the test samples were accurately weighed respectively with an electronic analytical balance. The technical pesticides were dissolved in acetone, and then diluted with 0.1% Tween 80 water into a series of pesticide solutions with a certain concentration gradient according to the experimental design dosage.
Experimental method: first, cotton leaves with neat and consistent Bemisia tabaci (Gennadius) nymphs were selected and made into leaf disks, with about 20 insects on each leaf disk. Then, they were evenly sprayed with the pesticide solution in the order from low dosage to high dosage according to the experimental design, with 1.5 mL for each leaf and 3 replicates for each treatment. In addition, a blank control was set up.
The treated test materials were placed in an observation room, and the temperature, humidity and illumination of the observation room could be adjusted as needed. The number of dead and live insects was investigated 96 hours later. […] Then, the co-toxicity coefficient of each ratio was calculated using the Sun Y-P method to evaluate the mixing effect (the same as in Example 1).

The test system of data set [2] is mixed aphids of Myzus persicae (Sulzer). Briefly: Joint toxicity of I-72 + matrine, Example 34, Table 34. As to conditions: A = compound I-72, B = matrine, spraying on cabbage leaves with aphids, 48 hours, read-out: LC50. From the text:
Test subject: mixed aphids of Myzus persicae (Sulzer), a sensitive strain reared indoors.
Experimental method: the spraying method on leaves with aphids was adopted. Cabbage leaves with a certain number of Myzus persicae (Sulzer) were taken. The prepared pesticide solutions were evenly sprayed on both the front and back sides of the leaves in the order from low concentration to high concentration according to the experimental design. Then, the leaves were placed in a 6-cm-diameter Petri dish with filter paper. After natural air-drying in the shade, they were placed in the observation room. The experiment had 3 replicates set, and in addition, a blank control was set up. The number of dead and live insects was investigated 48 hours later. The corrected mortality rate was calculated using the Abbott's formula, and the DPS data processing software was used for statistical analysis to calculate the toxicities (LC50 values) of the single test pesticides and the mixtures under the test ratios.
The test conditions, the preparation of the pesticide solution and the evaluation method were the same as those in Example 1.

Data set [3] has as its system 3rd-instar larvae of Yponomeuta evonymallus (Linnaeus). In words: Synergism screening (Bliss) of I-72 + pyrethroid insecticides, Example 37, Table 37. As to conditions: single pesticide, leaf dipping, 72 hours. Here is the method:
Test target: 3rd-instar larvae of Yponomeuta evonymallus (Linnaeus).
as §1
Experimental method: Firstly, Hylotelephium spectabile leaves were selected and dipped into the prepared pesticide solutions for 10 s in the order from low dosage to high dosage according to the experimental design. After natural air-drying in the shade, they were placed in a 9-cm-diameter Petri dish with filter paper, and uniform and healthy test insects were introduced, with 10 insects for each treatment and 3 replicates for each treatment. In addition, a blank control (CK) was set up.
The treated test materials were placed in an observation room, and the temperature, humidity and illumination of the observation room could be adjusted as needed. The number of dead and alive insects was investigated 72 hours later, and the corrected mortality rate was calculated using the Abbott's formula.
The synergism of the mixture was evaluated by the Bliss method. According to the concept of independent joint action he proposed, Bliss believes that the theoretical mortality rate P when insecticides are used in combination can be calculated by the following formula: […]
Pm is the measured mortality rate (%) of the target when the first active ingredient is at a concentration of m; and Pn is the measured mortality rate (%) of the target when the second active ingredient is used at a concentration of n.
If the actual mortality rate of the target after the two active ingredients are mixed at a certain concentration is greater than theoretical mortality rate P, it is determined that the two active ingredients have a synergistic effect when used in combination at the set concentration, and otherwise, they have an antagonistic effect.

Data set [4] deals with Frankliniella occidentalis nymphs. In words: whole plant or invertebrate. As to conditions: foliar, A = compound I-72, B = dinotefuran, kidney bean leaf dipping, 48 hours, read-out: LC50. Here is the method:
Test target: Frankliniella occidentalis nymphs.
as §1
Experimental method: first, kidney bean leaves were selected and dipped in the prepared pesticide solution for 10 s in the order from low dosage to high dosage according to the experimental design. After natural air-drying in the shade, they were placed in a 9-cm-diameter Petri dish with filter paper, and uniform and healthy test insects were introduced, with 20-30 insects for each treatment and 3 replicates for each treatment. In addition, a blank control was set up.
The treated test materials were placed in an observation room, and the temperature, humidity and illumination of the observation room could be adjusted as needed. The number of dead and live insects was investigated 48 hours later. […] Then, the co-toxicity coefficient of each ratio was calculated using the Sun Y-P method to evaluate the mixing effect (the same as in Example 1).

Data set [5] deals with Liriomyza sativae Blanchard larvae. Briefly: Joint toxicity of I-72 + cyromazine, Example 55, Table 55. The conditions noted are these: A = compound I-72, B = cyromazine, kidney bean seedling spraying, counted after blank control larvae pupated, read-out: LC50. Here is the method:
Test target: Liriomyza sativae Blanchard larvae.
as §1
Experimental method: first, kidney bean seedlings with the Liriomyza sativae Blanchard larvae (the larvae had just invaded and formed mines) were selected. Spraying treatments were performed in the order from low dosage to high dosage according to the experimental design, with 3 replicates for each treatment. In addition, a blank control was set up.
The treated test materials were placed in an observation room, and the temperature, humidity and illumination of the observation room could be adjusted as needed. After the larvae in the blank control group pupated, the numbers of dead and live insects were then counted. […] Then, the co-toxicity coefficient of each ratio was calculated using the Sun Y-P method to evaluate the mixing effect (the same as in Example 1).

Data set [6] concerns 3rd-instar larvae of Agrotis ipsilon (Rottemberg). Briefly: whole plant or invertebrate. As to conditions: Agrotis ipsilon; A = compound I-72, B = metalaxyl-M; insect-dipping; 72 hours; read-out: LC50. Here is the method:
Test conditions: temperature: 24-26° C., humidity: RH 60%, and illumination: L:D=14:10
as §1
The target insects were dipped into the pesticide solution for 10 s and then taken out. Excess pesticide solution was absorbed with filter paper. […] A treatment without the pesticide was set as the blank control.
The number of dead and live insects was investigated 72 hours later. The corrected mortality rate was calculated using the Abbott's formula, and statistical analysis was performed with the DPS data processing software to obtain the toxicity regression equation and LC50 value of each single test pesticide and each mixture of different ratios.

As to `CN(C(=O)c1ccc2c(c1)OC(F)(F)O2)c1cccc(C(=O)Nc2c(Br)cc(C(F)(C(F)(F)F)C(F)(F)F)cc2OC(F)F)c1F` [Compound I-72], the LC50 came out at 10.9 µg/mL in data set [1]; 6.36 µg/mL in data set [2]; 2.41 µg/mL (≈ 3.25 µM) in data set [4]; 0.501 µg/mL in data set [5]; 0.265 µg/mL (≈ 0.357 µM) in data set [6]. The results for the “Measured mortality rate (%)” value in data set [3] (concentration 0.1 mg/L) and in data set [3] (concentration 5 mg/L) were 11.1% and 57.1%, respectively.

The record behind these values is patent publication US20260198495A1, “BINARY INSECTICIDE COMPOSITION AND USE THEREOF” (SHENYANG SINOCHEM AGROCHEMICALS R & D CO., LTD., priority 2022, published 2026).
